The text below walks through data of article PMC4623978, “Modulation of Closed−State Inactivation in Kv2.1/Kv6.4 Heterotetramers as Mechanism for 4−AP Induced Potentiation” (PLoS ONE, 2015).

Test [1] concerns the target T1, Kv2.1/Kv5.1 heterotetramer (Homo sapiens, UniProt Q14721+Q9H3M0).
T1 construct: gene KCNB1; co-transfected in mouse Ltk- cells, KvS:Kv2.1 10:1 cDNA
T1 sequence (Q14721 1-858): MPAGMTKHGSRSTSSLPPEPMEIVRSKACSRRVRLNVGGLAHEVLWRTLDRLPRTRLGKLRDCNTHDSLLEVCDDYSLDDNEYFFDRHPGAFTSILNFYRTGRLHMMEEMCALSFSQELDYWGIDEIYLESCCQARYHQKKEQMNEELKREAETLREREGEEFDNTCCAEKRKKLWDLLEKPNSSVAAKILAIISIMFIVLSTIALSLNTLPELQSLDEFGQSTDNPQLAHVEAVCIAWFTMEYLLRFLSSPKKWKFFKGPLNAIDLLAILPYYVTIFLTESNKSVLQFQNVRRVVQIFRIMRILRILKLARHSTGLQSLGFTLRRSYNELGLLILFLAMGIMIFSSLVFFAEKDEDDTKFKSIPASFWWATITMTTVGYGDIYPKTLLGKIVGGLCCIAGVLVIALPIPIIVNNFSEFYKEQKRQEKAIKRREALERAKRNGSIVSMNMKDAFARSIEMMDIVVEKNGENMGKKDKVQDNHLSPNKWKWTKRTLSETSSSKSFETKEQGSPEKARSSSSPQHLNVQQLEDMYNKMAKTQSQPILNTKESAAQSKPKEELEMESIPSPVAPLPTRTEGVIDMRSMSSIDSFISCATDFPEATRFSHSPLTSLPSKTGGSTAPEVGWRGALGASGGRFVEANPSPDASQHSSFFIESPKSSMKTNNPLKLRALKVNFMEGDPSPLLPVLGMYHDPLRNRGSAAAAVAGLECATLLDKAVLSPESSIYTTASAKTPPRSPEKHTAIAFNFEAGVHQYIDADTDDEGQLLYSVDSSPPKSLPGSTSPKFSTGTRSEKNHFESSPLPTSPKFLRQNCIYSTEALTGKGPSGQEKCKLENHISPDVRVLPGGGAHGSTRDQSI
T1 sequence (Q9H3M0 1-494): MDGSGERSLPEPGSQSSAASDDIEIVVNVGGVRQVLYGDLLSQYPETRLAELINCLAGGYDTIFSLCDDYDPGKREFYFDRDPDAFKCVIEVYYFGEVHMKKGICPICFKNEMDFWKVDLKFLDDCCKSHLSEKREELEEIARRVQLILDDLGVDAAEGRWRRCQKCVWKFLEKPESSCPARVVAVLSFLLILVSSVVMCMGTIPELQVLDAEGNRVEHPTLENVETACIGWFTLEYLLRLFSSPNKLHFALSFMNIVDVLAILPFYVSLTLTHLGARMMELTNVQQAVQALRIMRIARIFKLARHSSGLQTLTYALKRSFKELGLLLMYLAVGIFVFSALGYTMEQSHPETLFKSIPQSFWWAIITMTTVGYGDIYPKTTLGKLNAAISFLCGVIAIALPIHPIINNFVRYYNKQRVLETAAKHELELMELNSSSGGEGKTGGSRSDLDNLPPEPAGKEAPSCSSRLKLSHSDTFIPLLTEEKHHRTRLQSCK
As to the kind of experiment: whole-cell patch clamp, current block. Format: cell-based. Conditions: pH 7.35 outside, 20-23 °C. A general note: Patch clamp records ionic current or voltage across a cell membrane.

A further test relates to T2, Kv2.1/Kv6.4_S6c_Kv9.3.
T2 construct: gene KCNB1
In words: whole-cell patch clamp, current block. The test is classed as cell-based, Homo sapiens (Kv2.1, Kv6.4); Mus musculus (Kv9.3 S6c). To be noted: pH 7.35 outside, 20-23 °C.

Another test addresses T3, Kv2.1 homotetramer (Homo sapiens, UniProt Q14721).
T3 construct: gene KCNB1; full-length in eGFP-N1 vector, transiently expressed in mouse Ltk- cells; homotetramer
T3 sequence (Q14721 1-858): T1 sequence (Q14721 1-858)
As to the kind of experiment: whole-cell patch clamp, Hill fit of current at +[…] mV. Format: cell-based.

Test [2] concerns the target T4, Kv2.1/Kv6.4 heterotetramer (Homo sapiens, UniProt Q14721+Q8TDN1).
T4 construct: gene KCNB1; co-transfected in mouse Ltk- cells, KvS:Kv2.1 10:1 cDNA; formerly named Kv6.3
T4 sequence (Q14721 1-858): T1 sequence (Q14721 1-858)
T4 sequence (Q8TDN1 1-519): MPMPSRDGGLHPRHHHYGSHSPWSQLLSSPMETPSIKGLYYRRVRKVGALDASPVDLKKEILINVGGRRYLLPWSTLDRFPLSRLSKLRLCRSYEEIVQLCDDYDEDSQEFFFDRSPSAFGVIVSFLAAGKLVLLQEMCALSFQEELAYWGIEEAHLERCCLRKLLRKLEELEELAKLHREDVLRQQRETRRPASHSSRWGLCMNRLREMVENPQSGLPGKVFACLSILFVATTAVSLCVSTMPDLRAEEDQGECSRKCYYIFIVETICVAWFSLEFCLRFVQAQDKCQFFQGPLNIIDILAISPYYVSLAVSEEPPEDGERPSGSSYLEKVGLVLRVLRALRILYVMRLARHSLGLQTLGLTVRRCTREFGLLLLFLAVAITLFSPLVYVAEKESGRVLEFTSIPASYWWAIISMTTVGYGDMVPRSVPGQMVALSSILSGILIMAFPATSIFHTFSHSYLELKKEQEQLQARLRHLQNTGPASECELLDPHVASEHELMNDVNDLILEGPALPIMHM
The description is as above. The test is classed as cell-based.

In the case of `Nc1ccncc1` [4-aminopyridine], the “% inhibition at 18 mM” value was determined as 10 ± 2% in test [1] and 12 ± 3% with Kv2.1/Kv6.4_S6c_Kv9.3.
Take `O=C(NCC1CCCCN1)c1cc(OCC(F)(F)F)ccc1OCC(F)(F)F` (stereo not drawn) [flecainide]: the IC50 was determined as 7.4 ± 0.8 µM at Kv2.1 homotetramer and 2 ± 0.1 µM in test [2].
As to `C=C[C@H]1C[N@@]2CC[C@H]1C[C@@H]2[C@@H](O)c1ccnc2ccc(OC)cc12` [quinidine], the IC50 stood at 7.2 ± 0.8 µM on Kv2.1 homotetramer and 3 ± 0.1 µM in test [2].

As usually defined, the % inhibition is the share of the control response that was lost under treatment. Broadly, the IC50 is the concentration at which inhibition is half-maximal. A low value points to greater potency.
